Measurements published in the supplement of paper PMC10331698.
± gives the standard deviation of the averaged measurements.

Key:
Assay in all cases: level (log10 ratio to DMSO vehicle control); higher = higher biomarker level / cell amount than vehicle control
[1] = compound: O=C(Cl)C(F)(F)C(F)(F)C(F)(F)C(=O)Cl [Hexafluoroglutaryl chloride]; settings: in DMSO
Experimental: (§1)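 BioMAP Diversity Plus panel of 12 human primary cell co-culture systems (3C, 4H, LPS, SAg, BT, BF4T, BE3C, CASM3C, HDF3CGF, KF3CT, MyoF, Mphg). Compounds were added 1 h before stimulation and left for 24 h (MyoF 48 h; BT 72 h for soluble read-outs or 6 d for IgG). Biomarkers were read by ELISA, cytotoxicity by SRB, PBMC viability and proliferation by Alamar Blue. Each well value was divided by the mean of 8 DMSO control wells on the same plate and log10 transformed; duplicate blinded samples were tested at 4 concentrations.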

[2] = compound: FC(F)(I)C(F)(F)C(F)(F)C(F)(F)C(F)(F)C(F)(F)I [1,6-Diiodoperfluorohexane]; settings: 6700 nM; in DMSO
Experimental: as §1

[3] = compound: Cc1ccc(S(=O)(=O)OCC(F)(F)C(F)(F)C(F)(F)C(F)(F)C(F)(F)C(F)F)cc1 [1H,1H,7H-Perfluoroheptyl 4-methylbenzenesulfonate]; settings: in DMSO
Experimental: as §1

Methotrexate = compound: CN(Cc1cnc2nc(N)nc(N)c2n1)c1ccc(C(=O)N[C@@H](CCC(=O)O)C(=O)O)cc1 [Methotrexate]; settings: in DMSO
Experimental: as §1

Perfluorooctanoic acid = compound: O=C(O)C(F)(F)C(F)(F)C(F)(F)C(F)(F)C(F)(F)C(F)(F)C(F)(F)F [Perfluorooctanoic acid]; settings: in DMSO
Experimental: as §1

[4] = compound: OCCCC(F)(F)C(F)(F)C(F)(F)C(F)(F)C(F)(F)C(F)(F)C(F)(F)C(F)(F)F [3-(Perfluorooctyl)propanol]; settings: 6700 nM; in DMSO
Experimental: as §1

Perfluoropinacol = compound: OC(C(F)(F)F)(C(F)(F)F)C(O)(C(F)(F)F)C(F)(F)F [Perfluoropinacol]; settings: in DMSO
Experimental: as §1

[5] = compound: C=CC(=O)OCCC(F)(F)C(F)(F)C(F)(F)C(F)(F)C(F)(F)C(F)(F)C(F)(F)C(F)(F)F [8:2 Fluorotelomer acrylate]; settings: in DMSO
Experimental: as §1

Test System	level (log10) ([1]; 6700 nM)	level (log10) ([1]; 20000 nM)	level (log10) ([1]; 60000 nM)	level (log10) [2]	level (log10) ([3]; 6700 nM)	level (log10) ([3]; 20000 nM)	level (log10) ([3]; 60000 nM)	level (log10) (Methotrexate; 1500 nM)	level (log10) (Methotrexate; 4400 nM)	level (log10) (Methotrexate; 13000 nM)	level (log10) (Methotrexate; 40000 nM)	level (log10) (Perfluorooctanoic acid; 6700 nM)	level (log10) (Perfluorooctanoic acid; 20000 nM)	level (log10) (Perfluorooctanoic acid; 60000 nM)	level (log10) [4]	level (log10) (Perfluoropinacol; 6700 nM)	level (log10) (Perfluoropinacol; 20000 nM)	level (log10) ([5]; 6700 nM)	level (log10) ([5]; 20000 nM)	level (log10) ([5]; 60000 nM)
3C:CD141/Thrombomodulin	-0.0455 ± 0.013	-0.0275 ± 0.0078	-0.056 ± 0.057	-0.003	0.008 ± 0.0028	0.021 ± 0.0014	0.0395 ± 0.00071	-0.024 ± 0.0085	-0.016 ± 0.0057	-0.0235 ± 0.067	-0.0265 ± 0.019	0.023 ± 0.065	-0.011 ± 0.081	-0.0115 ± 0.039	-0.0055 ± 0.019	-0.0165 ± 0.0021	-0.033 ± 0.034	-0.0015 ± 0.036	-0.0295 ± 0.0035	0.023 ± 0.072
lMphg:CCL3/MIP-1alpha	0.001 ± 0.069	0.012 ± 0.034	0.0145 ± 0.073	-0.016	-0.007 ± 0.0014	0.0145 ± 0.0021	0.0465 ± 0.033	-0.0375 ± 0.016	-0.0305 ± 0.00071	0.0035 ± 0.012	0.029 ± 0.027	0.039 ± 0.033	0.0295 ± 0.066	-0.0365 ± 0.067	-0.018 ± 0.0014	0.116 ± 0.047	0.116 ± 0.062	0.056 ± 0.011	0.0485 ± 0.047	0.0325 ± 0.025
MyoF:CD106/VCAM-1	-0.003 ± 0.0028	0.0015 ± 0.018	0.0035 ± 0.012	-0.373	0.004 ± 0.0014	0.023 ± 0.0014	0.0135 ± 0.0021	0.0165 ± 0.015	-0.0045 ± 0.013	0.038 ± 0.024	0.0095 ± 0.0092	0.0065 ± 0.011	0.004 ± 0.0028	0.0095 ± 0.00071	-0.078 ± 0.044	-0.013 ± 0.011	-0.042 ± 0.0085	-0.012 ± 0.0071	-0.0335 ± 0.0078	-0.027 ± 0.023
BE3C:MMP-9	-0.0005 ± 0.00071	-0.003 ± 0.018	-0.0325 ± 0.042	-0.008	0.012 ± 0.027	-0.0165 ± 0.021	-0.003 ± 0.035	0.014 ± 0.021	-0.0025 ± 0.011	0.0045 ± 0.079	0.0085 ± 0.015	-0.0185 ± 0.012	0.015 ± 0.0028	0.079 ± 0.047	0.036 ± 0.038	-0.011 ± 0.0014	-0.04 ± 0.0028	-0.027 ± 0.0071	-0.016 ± 0.0042	-0.011 ± 0.024
HDF3CGF:MMP-1	0.0195 ± 0.012	0.013 ± 0.0042	0.018	-0.303	0.024 ± 0.0014	0.0535 ± 0.016	0.066 ± 0.0014	-0.0085 ± 0.005	-0.0135 ± 0.0021	0.0005 ± 0.0021	0.0065 ± 0.028	-0.0155 ± 0.0064	-0.048 ± 0.0085	-0.035 ± 0.023	-0.0315 ± 0.044	0.024 ± 0.023	0.017 ± 0.014	0.0165 ± 0.015	0.026 ± 0.011	0.0235 ± 0.029
BE3C:tPA	-0.005 ± 0.0014	-0.009 ± 0.014	-0.0075 ± 0.022	-0.032	-0.002 ± 0.044	-0.032 ± 0.054	-0.013 ± 0.034	0.012 ± 0.0071	-0.004 ± 0.075	0.0085 ± 0.091	0.0215 ± 0.033	-0.0515 ± 0.025	-0.0285 ± 0.036	-0.038 ± 0.0085	0.0365 ± 0.012	-0.0455 ± 0.0078	-0.224 ± 0.012	-0.034 ± 0.02	-0.051 ± 0.0042	-0.002 ± 0.04
lMphg:SRB-Mphg	0.007 ± 0.0057	0.0065 ± 0.005	0.0125 ± 0.011	-0.023	0.033 ± 0.0028	-0.013 ± 0.03	0.0155 ± 0.036	-0.105 ± 0.073	-0.0855 ± 0.0021	-0.105 ± 0.064	0.0295 ± 0.025	-0.0085 ± 0.013	0.0005 ± 0.005	-0.002 ± 0.03	-0.049 ± 0.072	-0.015 ± 0.0099	-0.05 ± 0.0028	-0.026 ± 0.0014	-0.012 ± 0.021	0.003 ± 0.037
HDF3CGF:Proliferation 72hr	0.001 ± 0.0042	-0.0005 ± 0.012	-0.0095 ± 0.019	-0.919	-0.031 ± 0.011	0.0195 ± 0.036	-0.197 ± 0.11	-0.0885 ± 0.042	-0.076 ± 0.13	-0.0515 ± 0.036	-0.083 ± 0.05	0.06 ± 0.041	0.15 ± 0.005	0.0875 ± 0.0078	-1.04 ± 0.033	-0.183 ± 0.044	-0.39 ± 0.05	-0.011 ± 0.0099	-0.026 ± 0.044	-0.154 ± 0.076
HDF3CGF:CD106/VCAM-1	-0.013 ± 0.0085	0.0205 ± 0.049	-0.041 ± 0.014	-0.335	-0.061 ± 0.013	-0.046 ± 0.016	-0.0335 ± 0.0035	0.028 ± 0.031	0.01 ± 0.03	0.0355 ± 0.069	-0.0225 ± 0.1	-0.0055 ± 0.005	-0.011 ± 0.017	-0.024 ± 0.013	-0.244 ± 0.013	-0.089 ± 0.037	-0.228 ± 0.0014	0.0005 ± 0.022	0.011 ± 0.0071	0.007 ± 0.0085
HDF3CGF:Collagen III	-0.027 ± 0.0028	-0.06 ± 0.031	-0.023 ± 0.028	-0.358	-0.0605 ± 0.03	-0.0435 ± 0.011	-0.048 ± 0.073	0.0115 ± 0.061	-0.002 ± 0.072	0.004 ± 0.013	-0.026 ± 0.086	0.012 ± 0.011	0.0255 ± 0.0078	0.0155 ± 0.053	-0.12 ± 0.0092	0.0175 ± 0.0078	-0.0845 ± 0.0064	0.032 ± 0.024	0.0315 ± 0.019	0.086 ± 0.014
BE3C:Keratin 8/18	0.0005 ± 0.005	-0.0195 ± 0.0078	-0.0135 ± 0.022	-0.018	-0.006 ± 0.0085	-0.006 ± 0.048	-0.0065 ± 0.013	-0.0105 ± 0.047	-0.035 ± 0.042	-0.022 ± 0.057	-0.024 ± 0.025	-0.0145 ± 0.0064	-0.01 ± 0.0014	0.0065 ± 0.028	0.0085 ± 0.033	-0.0145 ± 0.00071	-0.019 ± 0.0028	-0.013 ± 0.0014	-0.014 ± 0.0085	0.0085 ± 0.033
lMphg:CD69	-0.021 ± 0.011	-0.032 ± 0.018	-0.0135 ± 0.029	-0.01	-0.007 ± 0.016	-0.048 ± 0.027	-0.039 ± 0.062	-0.03 ± 0.021	-0.0135 ± 0.036	-0.0325 ± 0.057	-0.034 ± 0.054	-0.048 ± 0.028	-0.0655 ± 0.05	-0.033 ± 0.11	0.018 ± 0.04	-0.124 ± 0.026	-0.256 ± 0.058	-0.054 ± 0.017	-0.0565 ± 0.023	0.002 ± 0.079
KF3CT:uPA	0.003 ± 0.0099	0.0235 ± 0.00071	0.015 ± 0.014	-0.002	0.006 ± 0.021	-0.036 ± 0.023	-0.0335 ± 0.022	-0.0115 ± 0.0021	-0.0195 ± 0.00071	-0.031 ± 0.057	-0.045 ± 0.059	0.0095 ± 0.0021	0.012 ± 0.0042	0.013 ± 0.017	-0.0045 ± 0.025	0.0065 ± 0.035	0.019 ± 0.021	0.003 ± 0.013	-0.0165 ± 0.037	-0.004 ± 0.0014
